Test results taken from article PMC7326275 (PLoS Pathogens, 2020).
Several values for one entry are separate records, joined by “and”; a condition that tells them apart may be missing. Equal entries are not always repeated. Where two headings read alike, the source gives them in different places. Marks after values point to notes of the source that are not given here.

What was measured:
[1] = system: influenza NA protein (nine different influenza viruses); assay: Fluorometric NA inhibition assay, summary over viruses
[2] = system: H1N1pdm09 virus (A/Perth/265/2009); assay type: in vivo
H1N1pdm09 virus = assay type: in vivo
[3] = system: nine different influenza viruses; assay: animal or person; assay type: in vivo; settings: Mustela putorius, estimated from non-linear regression model, ferrets
[4] = system: H1N1 virus (A/Mississippi/3/2001); assay type: in vivo
[5] = system: H3N2 virus (A/Fukui/20/2004); assay type: in vivo
[6] = system: B virus (B/Minnesota/23/2015); assay type: in vivo
[7] = B, OST dosed ferrets, maximum loss from baseline

CCOC(=O)C1=C[C@@H](OC(CC)CC)[C@H](NC(C)=O)[C@@H](N)C1 [OST, oseltamivir]
IC50 ([1]; read-out: OST IC50 values, range over nine different influenza viruses, nine viruses of the ferret study): 0.2 to 414 nM
IC50 ([1]; read-out: normal IC50 values of wild-type influenza A viruses, wild-type influenza A viruses): ~1 nM
Total Score (clinical signs) ([2]; H1N1pdm09, OST dosed ferrets): 6
Temperature clinical score ([2]; H1N1pdm09, OST dosed ferrets, maximum increase from baseline): 2 (1.5–2.0)
Activity loss clinical score ([2]; H1N1pdm09, OST dosed ferrets, maximum loss from baseline): 1 (21–40)
Nasal inflammation Cell score ([2]; H1N1pdm09, OST dosed ferrets, nasal wash, maximum cell count): 1 (1 to 2 x10^6)
Nasal inflammation Protein score ([2]; H1N1pdm09, OST dosed ferrets, nasal wash, maximum protein concentration): 2 (1001–1500)
difference in %AUC for activity levels (OST vs placebo) ([2]; H1N1pdm09, ferrets): 53%
Duration of Shedding ([2]; H1N1pdm09, ferrets, OST 5 mg/kg twice daily): 3.5 ± 0.7 days
AUC (total area under the viral shedding curve, raw data) ([2]; H1N1pdm09, ferrets, OST 5 mg/kg twice daily, mean ± SD): 9.3 ± 12.7
difference in %AUC for protein concentration (OST vs placebo) ([2]; H1N1pdm09, ferrets, nasal wash): 56%
% Ferrets Infected ([2]; in vivo): 50% and 50 (2/4) %
Peak Viral Titre ([2]; in vivo): 4.2 ± 0.9 Log10 TCID50/ml
Weight loss clinical score ([2]; in vivo): 0
difference in %AUC for weight change (OST vs placebo) ([2]; in vivo): 4.9%
body weight or temperature, OST- vs placebo-treated animals (H1N1pdm09 virus; H1N1pdm09, macaques, OST 3 mg/kg orally): no significant differences
viral titre lower in tracheal lavages of OST dosed macaques compared to placebo (H1N1pdm09 virus; cynomolgus monkey, in vivo): 1.9 logs
viral titres in nasal wash and tracheal lavages, OST vs placebo (H1N1pdm09 virus; cynomolgus monkey, in vivo): not significantly different
IC50 ([3]; read-out: IC50 corresponding to a 50% reduction in OST efficacy against viral shedding): 14.6 nM
IC50 ([3]; read-out: IC50 corresponding to a 90% loss in oseltamivir efficacy against viral shedding): 68.2 nM
Total Score (clinical signs) ([4]; H1N1, OST dosed ferrets): 3
Temperature clinical score ([4]; H1N1, OST dosed ferrets, maximum increase from baseline): 1 (1.1–1.5)
Activity loss clinical score ([4]; H1N1, OST dosed ferrets, maximum loss from baseline): 1 (21–40)
Nasal inflammation Cell score ([4]; H1N1, OST dosed ferrets, nasal wash, maximum cell count): 1 (1 to 2 x10^6)
Nasal inflammation Protein score ([4]; H1N1, OST dosed ferrets, nasal wash, maximum protein concentration): 0 (<500)
difference in %AUC for weight (OST vs placebo) ([4]; H1N1, ferrets): 2.5%
Duration of Shedding ([4]; H1N1, ferrets, OST 5 mg/kg twice daily): 0.0 ± 0.0 days
AUC (total area under the viral shedding curve, raw data) ([4]; H1N1, ferrets, OST 5 mg/kg twice daily, mean ± SD): 0.0 ± 0.0
difference in %AUC for cell count (OST vs placebo) ([4]; H1N1, ferrets, nasal wash): 67%
difference in %AUC for protein concentration (OST vs placebo) ([4]; H1N1, ferrets, nasal wash): 74%
% Ferrets Infected ([4]; in vivo): 0 (0/4) %
Weight loss clinical score ([4]; in vivo): 0
activity levels of OST dosed ferrets ([4]; in vivo): fluctuated around pre-exposure baseline levels
ferrets infected (number infected/number exposed) ([4]; in vivo): 0/4
Total Score (clinical signs) ([5]; H3N2, OST dosed ferrets): 1
Temperature clinical score ([5]; H3N2, OST dosed ferrets, maximum increase from baseline): 0 (<1)
Activity loss clinical score ([5]; H3N2, OST dosed ferrets, maximum loss from baseline): 1 (21–40)
Nasal inflammation Cell score ([5]; H3N2, OST dosed ferrets, nasal wash, maximum cell count): 0 (<1X10^6)
Nasal inflammation Protein score ([5]; H3N2, OST dosed ferrets, nasal wash, maximum protein concentration): 0 (<500)
Duration of Shedding ([5]; H3N2, ferrets, OST 5 mg/kg twice daily): 2.0 ± 0.8 days
AUC (total area under the viral shedding curve, raw data) ([5]; H3N2, ferrets, OST 5 mg/kg twice daily, mean ± SD): 3.0 ± 3.7
% Ferrets Infected ([5]; in vivo): 50 (4/8) %
Peak Viral Titre ([5]; in vivo): 3.0 ± 0.8 Log10 TCID50/ml
Weight loss clinical score ([5]; in vivo): 0
ferrets prevented from shedding infectious virus ([5]; in vivo): 50%
reduction of %AUC for cell counts (OST vs placebo) ([5]; in vivo): 69.2%
reduction of %AUC for protein concentration (OST vs placebo) ([5]; in vivo): 52.4%
Total Score (clinical signs) ([6]; B, OST dosed ferrets): 3
Temperature clinical score ([6]; B, OST dosed ferrets, maximum increase from baseline): 0 (<1)
Activity loss clinical score [6, 7]: 1 (21–40)
Weight loss clinical score [6, 7]: 0
Nasal inflammation Cell score ([6]; B, OST dosed ferrets, nasal wash, maximum cell count): 1 (1 to 2 x10^6)
Nasal inflammation Protein score ([6]; B, OST dosed ferrets, nasal wash, maximum protein concentration): 1 (500–1000)
% Ferrets Infected ([6]; B, ferrets, OST 5 mg/kg orally twice daily): 100 (4/4) %
Duration of Shedding ([6]; B, ferrets, OST 5 mg/kg twice daily): 5.5 ± 0.6 days
AUC (total area under the viral shedding curve, raw data) ([6]; B, ferrets, OST 5 mg/kg twice daily, mean ± SD): 12.9 ± 1.9
Peak Viral Titre ([6]; in vivo): 3.7 ± 0.4 Log10 TCID50/ml
